Here are results for 8 molecules from patent publication US12162888B2, “Carboxamides as ubiquitin-specific protease inhibitors” (Valo Early Discovery, Inc., priority 2018, dated 2024).

The target in the test is T1, USP25 (USP25-His6, Boston Biochem E-546) (Homo sapiens, UniProt Q9UHP3).
T1 construct: His6 (C); purchased Boston Biochem E-546
T1 sequence (Q9UHP3 1-1055): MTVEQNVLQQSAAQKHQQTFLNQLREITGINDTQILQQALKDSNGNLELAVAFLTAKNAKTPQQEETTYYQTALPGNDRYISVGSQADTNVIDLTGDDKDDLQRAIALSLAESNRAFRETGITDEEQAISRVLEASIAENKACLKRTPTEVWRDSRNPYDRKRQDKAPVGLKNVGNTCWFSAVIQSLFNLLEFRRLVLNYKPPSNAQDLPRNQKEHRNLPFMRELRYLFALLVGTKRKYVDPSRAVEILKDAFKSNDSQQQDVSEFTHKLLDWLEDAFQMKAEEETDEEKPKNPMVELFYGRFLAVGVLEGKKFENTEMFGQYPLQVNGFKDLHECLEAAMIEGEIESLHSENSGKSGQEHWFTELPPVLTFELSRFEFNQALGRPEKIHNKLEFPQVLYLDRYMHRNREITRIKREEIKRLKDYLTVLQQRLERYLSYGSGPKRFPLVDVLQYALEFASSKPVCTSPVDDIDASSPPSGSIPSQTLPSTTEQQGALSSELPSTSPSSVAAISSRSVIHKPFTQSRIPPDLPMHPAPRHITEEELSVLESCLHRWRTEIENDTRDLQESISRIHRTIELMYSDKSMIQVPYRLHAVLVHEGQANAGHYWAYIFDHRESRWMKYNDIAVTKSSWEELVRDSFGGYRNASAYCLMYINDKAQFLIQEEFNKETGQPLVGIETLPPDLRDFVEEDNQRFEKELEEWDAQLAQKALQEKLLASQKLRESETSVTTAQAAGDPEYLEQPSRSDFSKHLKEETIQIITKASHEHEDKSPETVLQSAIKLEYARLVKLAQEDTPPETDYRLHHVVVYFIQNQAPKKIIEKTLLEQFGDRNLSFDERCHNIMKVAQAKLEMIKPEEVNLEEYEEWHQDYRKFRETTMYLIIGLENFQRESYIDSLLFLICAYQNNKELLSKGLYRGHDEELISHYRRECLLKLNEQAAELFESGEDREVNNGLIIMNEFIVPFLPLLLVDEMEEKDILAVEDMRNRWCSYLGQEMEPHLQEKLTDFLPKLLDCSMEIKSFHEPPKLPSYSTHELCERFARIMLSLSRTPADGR
Put plainly: Ubiquitin-Rhodamine 110 Assay for USP25 Activity, Example A-3. In kind it is biochemical. As to conditions: biochemical IC50 range, Ubiquitin-Rhodamine 110 assay, Example A-3; read-out: USP25 A-3. The gist of the method: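 USP25-His6 ([…] final as stated) preincubated 30 min with compound (10-point, 25 μM to 1.3 nM), then Ub-Rh110 at 25 nM (<<Km) added in pH 8.0 Tris buffer with BME, BGG and Triton X-100. Reaction stopped after 45 min at room temperature with 10 mM citric acid; fluorescence read at 485/535 nm.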
As to `Cc1ccc2c(N)c(C(=O)N[C@H]3COc4cc(N5C[C@@H](N)[C@@](C)(CF)C5)ccc4C3)sc2n1` [Example 660, 3-amino-N-[(3R)-7-[(3S,4S)-4-amino-3-(fluoromethyl)-3-methylpyrrolidin-1-yl]-3,4-dihydro-2H-1-benzopyran-3-yl]-6-methylthieno[2,3-b]pyridine-2-carboxamide], the IC50 is 1 to 50 nM.

Take `Cc1ccc2c(N)c(C(=O)N[C@H]3COc4cc(N5C[C@@H](N)[C@](C)(CF)C5)ccc4C3)sc2n1` [Example 661, 3-amino-N-[(3R)-7-[(3R,4S)-4-amino-3-(fluoromethyl)-3-methylpyrrolidin-1-yl]-3,4-dihydro-2H-1-benzopyran-3-yl]-6-methylthieno[2,3-b]pyridine-2-carboxamide]: the IC50 was 50 to 200 nM.

As to `CN[C@H]1CN(c2ccc3c(c2)OC[C@H](NC(=O)c2sc4nc(C)ccc4c2N)C3)C[C@@H]1CF` [Example 662, 3-amino-N-[(3R)-7-[(3S,4R)-3-(fluoromethyl)-4-(methylamino)pyrrolidin-1-yl]-3,4-dihydro-2H-1-benzopyran-3-yl]-6-methylthieno[2,3-b]pyridine-2-carboxamide], the IC50 was 1 to 50 nM.

For the molecule `CN[C@@H]1CN(c2ccc3c(c2)OC[C@H](NC(=O)c2sc4nc(C)ccc4c2N)C3)C[C@H]1CF` [Example 663, 3-amino-N-[(3R)-7-[(3R,4S)-3-(fluoromethyl)-4-(methylamino)pyrrolidin-1-yl]-3,4-dihydro-2H-1-benzopyran-3-yl]-6-methylthieno[2,3-b]pyridine-2-carboxamide], the IC50 lay in the range of 50 to 200 nM.

`Cc1ccc2c(N)c(C(=O)N[C@H]3COc4cc(N5C[C@@H]6CCNC[C@@H]65)cc(F)c4C3)sc2n1` [Example 665, 3-amino-N-[(3R)-7-[(1R,6S)-3,8-diazabicyclo[4.2.0]octan-8-yl]-5-fluoro-3,4-dihydro-2H-1-benzopyran-3-yl]-6-methylthieno[2,3-b]pyridine-2-carboxamide]: the IC50 is 50 to 200 nM.

On to `O=C(N[C@H]1COc2cc(N3CCNCC3)ccc2C1)c1ccc(NCc2ccc(Cl)cc2Cl)nc1` [Example 697, 6-{[(2,4-dichlorophenyl)methyl]amino}-N-[(3R)-7-(piperazin-1-yl)-3,4-dihydro-2H-1-benzopyran-3-yl]pyridine-3-carboxamide], for which the IC50 was in the range of 1 to 50 nM.

Consider `O=C(N[C@H]1COc2cc(N3CCNCC3)ccc2C1)c1ccc(NCc2cccc3cn[nH]c23)nc1` [Example 698, 6-{[(1H-indazol-7-yl)methyl]amino}-N-[(3R)-7-(piperazin-1-yl)-3,4-dihydro-2H-1-benzopyran-3-yl]pyridine-3-carboxamide], for which the IC50 was in the range of 200 to 2000 nM.

In the case of `O=C(N[C@H]1COc2cc(N3CCNCC3)ccc2C1)c1ccc(NCc2cccc(Cl)c2Cl)nc1` [Example 699, 6-{[(2,3-dichlorophenyl)methyl]amino}-N-[(3R)-7-(piperazin-1-yl)-3,4-dihydro-2H-1-benzopyran-3-yl]pyridine-3-carboxamide], the IC50 lay in the range of 1 to 50 nM.
